In PubChem BioAssay (NCI):
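These data come from cells grown in 96-well plates and exposed to compound for 48 hours at five concentrations. The concentration for full growth arrest is given as TGI.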

Experiments:
Experiment in all cases: NCI-60 cell line screen, 48 h
SN12C renal = system: SN12C renal
OVCAR-4 ovarian = system: OVCAR-4 ovarian
RPMI-8226 leukemia = system: RPMI-8226 leukemia
OVCAR-3 ovarian = system: OVCAR-3 ovarian
HL-60(TB) leukemia = system: HL-60(TB) leukemia
LOX IMVI melanoma = system: LOX IMVI melanoma
SR leukemia = system: SR leukemia
SF-268 CNS = system: SF-268 CNS
HS 578T breast = system: HS 578T breast
OVCAR-8 ovarian = system: OVCAR-8 ovarian
COLO 205 colon = system: COLO 205 colon
HCT-15 colon = system: HCT-15 colon
MALME-3M melanoma = system: MALME-3M melanoma
T-47D breast = system: T-47D breast
SW-620 colon = system: SW-620 colon
IGROV1 ovarian = system: IGROV1 ovarian
MDA-MB-435 = system: MDA-MB-435
CAKI-1 renal = system: CAKI-1 renal
MCF7 breast = system: MCF7 breast
SK-MEL-28 melanoma = system: SK-MEL-28 melanoma
PC-3 prostate = system: PC-3 prostate
SF-539 CNS = system: SF-539 CNS
KM12 colon = system: KM12 colon
DU-145 prostate = system: DU-145 prostate
HCC-2998 colon = system: HCC-2998 colon
BT-549 breast = system: BT-549 breast
NCI-H226 lung = system: NCI-H226 lung
ACHN renal = system: ACHN renal
UACC-257 melanoma = system: UACC-257 melanoma
NCI-H460 lung = system: NCI-H460 lung
U251 CNS = system: U251 CNS
A549 NSCLC = system: A549 NSCLC
SK-MEL-2 melanoma = system: SK-MEL-2 melanoma
UO-31 renal = system: UO-31 renal
SK-MEL-5 melanoma = system: SK-MEL-5 melanoma
UACC-62 melanoma = system: UACC-62 melanoma
NCI-H23 lung = system: NCI-H23 lung
A498 renal = system: A498 renal
MOLT-4 leukemia = system: MOLT-4 leukemia
OVCAR-5 ovarian = system: OVCAR-5 ovarian
HCT-116 colon = system: HCT-116 colon
SF-295 CNS = system: SF-295 CNS
CCRF-CEM leukemia = system: CCRF-CEM leukemia
HOP-92 NSCLC = system: HOP-92 NSCLC
HOP-62 NSCLC = system: HOP-62 NSCLC
HT29 colon = system: HT29 colon
SNB-19 CNS = system: SNB-19 CNS
TK-10 renal = system: TK-10 renal
EKVX NSCLC = system: EKVX NSCLC
K-562 leukemia = system: K-562 leukemia
SK-OV-3 ovarian = system: SK-OV-3 ovarian
SNB-75 CNS = system: SNB-75 CNS
NCI-H522 lung = system: NCI-H522 lung
MDA-N = system: MDA-N
M14 melanoma = system: M14 melanoma
NCI/ADR-RES ovarian = system: NCI/ADR-RES ovarian
786-0 renal = system: 786-0 renal
RXF 393 renal = system: RXF 393 renal
MDA-MB-231 breast = system: MDA-MB-231 breast

Structure (SMILES): O=C(Nc1cccc2ccccc12)Nn1cnnc1
- TGI (SN12C renal): > 100 µM
- TGI (OVCAR-4 ovarian): > 100 µM
- TGI (RPMI-8226 leukemia): > 100 µM
- TGI (OVCAR-3 ovarian): > 100 µM
- TGI (HL-60(TB) leukemia): > 100 µM
- TGI (LOX IMVI melanoma): > 100 µM
- TGI (SR leukemia): > 100 µM
- TGI (SF-268 CNS): > 100 µM
- TGI (HS 578T breast): > 100 µM
- TGI (OVCAR-8 ovarian): > 100 µM
- TGI (COLO 205 colon): > 100 µM
- TGI (HCT-15 colon): > 100 µM
- TGI (MALME-3M melanoma): > 100 µM
- TGI (T-47D breast): > 100 µM
- TGI (SW-620 colon): > 100 µM
- TGI (IGROV1 ovarian): > 100 µM
- TGI (MDA-MB-435): > 100 µM
- TGI (CAKI-1 renal): > 100 µM
- TGI (MCF7 breast): > 100 µM
- TGI (SK-MEL-28 melanoma): > 100 µM
- TGI (PC-3 prostate): > 100 µM
- TGI (SF-539 CNS): > 100 µM
- TGI (KM12 colon): > 100 µM
- TGI (DU-145 prostate): > 100 µM
- TGI (HCC-2998 colon): > 100 µM
- TGI (BT-549 breast): > 100 µM
- TGI (NCI-H226 lung): > 100 µM
- TGI (ACHN renal): > 100 µM
- TGI (UACC-257 melanoma): > 100 µM
- TGI (NCI-H460 lung): > 100 µM
- TGI (U251 CNS): > 100 µM
- TGI (A549 NSCLC): > 100 µM
- TGI (SK-MEL-2 melanoma): > 100 µM
- TGI (UO-31 renal): > 100 µM
- TGI (SK-MEL-5 melanoma): > 100 µM
- TGI (UACC-62 melanoma): > 100 µM
- TGI (NCI-H23 lung): > 100 µM
- TGI (A498 renal): > 100 µM
- TGI (MOLT-4 leukemia): > 100 µM
- TGI (OVCAR-5 ovarian): > 100 µM
- TGI (HCT-116 colon): > 100 µM
- TGI (SF-295 CNS): > 100 µM
- TGI (CCRF-CEM leukemia): > 100 µM
- TGI (HOP-92 NSCLC): > 100 µM
- TGI (HOP-62 NSCLC): > 100 µM
- TGI (HT29 colon): > 100 µM
- TGI (SNB-19 CNS): > 100 µM
- TGI (TK-10 renal): > 100 µM
- TGI (EKVX NSCLC): > 100 µM
- TGI (K-562 leukemia): > 100 µM
- TGI (SK-OV-3 ovarian): > 100 µM
- TGI (SNB-75 CNS): > 100 µM
- TGI (NCI-H522 lung): > 100 µM
- TGI (MDA-N): > 100 µM
- TGI (M14 melanoma): > 100 µM

Structure (SMILES): COc1ccc([N+](=O)[O-])c2c(NCCCN(C)C)c3ccccc3nc12
- TGI (SN12C renal): 1.43 µM
- TGI (OVCAR-4 ovarian): 0.206 µM
- TGI (RPMI-8226 leukemia): 2.17 µM
- TGI (OVCAR-3 ovarian): 0.442 µM
- TGI (HL-60(TB) leukemia): 3.8 µM
- TGI (LOX IMVI melanoma): 5.11 µM
- TGI (SF-268 CNS): 3.44 µM
- TGI (HS 578T breast): 4.29 µM
- TGI (OVCAR-8 ovarian): 4.9 µM
- TGI (COLO 205 colon): 0.26 µM
- TGI (HCT-15 colon): 1.39 µM
- TGI (MALME-3M melanoma): 0.336 µM
- TGI (T-47D breast): 3.95 µM
- TGI (IGROV1 ovarian): 0.234 µM
- TGI (MDA-MB-435): 1.17 µM
- TGI (CAKI-1 renal): 5.7 µM
- TGI (MCF7 breast): 0.203 µM
- TGI (SK-MEL-28 melanoma): 13.4 µM
- TGI (PC-3 prostate): 0.372 µM
- TGI (SF-539 CNS): 1.49 µM
- TGI (KM12 colon): 0.509 µM
- TGI (DU-145 prostate): 1.79 µM
- TGI (HCC-2998 colon): 0.0727 µM
- TGI (BT-549 breast): 2.83 µM
- TGI (NCI-H226 lung): 0.862 µM
- TGI (ACHN renal): 0.389 µM
- TGI (UACC-257 melanoma): 0.531 µM
- TGI (NCI-H460 lung): 0.257 µM
- TGI (U251 CNS): 2.05 µM
- TGI (A549 NSCLC): 0.895 µM
- TGI (SK-MEL-2 melanoma): 0.281 µM
- TGI (UO-31 renal): 1.15 µM
- TGI (SK-MEL-5 melanoma): 0.243 µM
- TGI (NCI/ADR-RES ovarian): 23.5 µM
- TGI (UACC-62 melanoma): 0.285 µM
- TGI (NCI-H23 lung): 0.402 µM
- TGI (A498 renal): 0.0733 µM
- TGI (MOLT-4 leukemia): 1.39 µM
- TGI (OVCAR-5 ovarian): 0.984 µM
- TGI (HCT-116 colon): 0.978 µM
- TGI (SF-295 CNS): 0.693 µM
- TGI (786-0 renal): 0.504 µM
- TGI (CCRF-CEM leukemia): > 100 µM
- TGI (HOP-92 NSCLC): 0.4 µM
- TGI (HOP-62 NSCLC): 0.399 µM
- TGI (HT29 colon): 1.22 µM
- TGI (SNB-19 CNS): 3.51 µM
- TGI (TK-10 renal): 2.43 µM
- TGI (RXF 393 renal): 0.253 µM
- TGI (EKVX NSCLC): 0.557 µM
- TGI (K-562 leukemia): 3.76 µM
- TGI (MDA-MB-231 breast): 2.31 µM
- TGI (SK-OV-3 ovarian): 2.38 µM
- TGI (SNB-75 CNS): 0.802 µM
- TGI (NCI-H522 lung): 0.145 µM
- TGI (MDA-N): 1.55 µM
- TGI (M14 melanoma): 0.572 µM
